Patent US20110165594A1, “SYSTEMIC MARKERS FOR ASTHMA AND ANALOGOUS DISEASES” (THE CLEVELAND CLINIC FOUNDATION, priority 2005, published 2011)

Experiments:
Assay type in all cases: cell-based, human
BET1A cells [1] = experiment: Apoptosis detection by Annexin V binding
Protocol: Cell Culture. BET1A, a human bronchial epithelial cell line, was cultured in serum-free Lechner and […] medium (LHC-8, Biofluids, Inc., Rockville, Md.) with additives 0.33 nM retinoic acid, […] epinephrine and the antibiotic combination, 1% penicillin/streptomycin, on plates pre-coated with coating media containing 29 μg/ml collagen (Vitrogen: Collagen Corp., Palo Alto, Calif.), 10 μg/ml bovine serum albumin (Biofluids, Rockville, Md.), and 10 μg/ml fibronectin (Calbiochem, La Jolla, Calif.) for 5 min. HAEC obtained by bronchial brushing were cultured in serum-free Lechner and […] media (LHC8) on plates pre-coated with coating media ([…], et al., Cancer Res 1988, 48:1904-1909). […] T. Baker Inc, […], et al., FASEB J 2001, 15:70-78), or hydrogen peroxide (Sigma, St. Louis, Mo.) in a dose and time dependent manner. 293T cells, a clone of 293 (human embryonic kidney fibroblast cells) that expresses the Simian virus 40 large-T antigen, were maintained in DMEM (Invitrogen) with 10% FCS. Cell Viability and Apoptosis detection. Cell viability was assessed by bright-field microscopy using a trypan blue dye (0.4%) exclusion method. The mean survival was determined by examining four different low power fields. Annexin V binding was used to detect apoptotic cells as previously described (Trautmann A, et al., J Allergy Clin Immunol 2001, 108:839-846). Briefly, cells were incubated with 1.0 μg/mL annexin V-FITC and 2.5 μg/mL propidium iodide (BD Biosciences, Palo Alto, Calif.). The stained cells were analyzed with a FACScan (Becton Dickinson, San Jose, Calif.), using an argon ion laser at 488 nm and emission recorded at 520 nm with band pass and short pass filters. Gating was done on the forward angle and right angle light scatter only to exclude debris and cell clumps. […] The RFI was calculated using the ratio of the linearized mean fluorescence of the cell populations, as provided by the CellQuest software (Becton Dickinson, San Jose, Calif.). Apoptotic cells are identified as the Annexin positive-PI negative fraction.

caspase-3 = experiment: Caspase-3-like enzyme activity in BET1A cells; settings: time dependent
Protocol: Cell Culture. BET1A, a human bronchial epithelial cell line, was cultured in serum-free Lechner and LaVeck medium (LHC-8, Biofluids, Inc., Rockville, Md.) with additives 0.33 nM retinoic acid, […] epinephrine and the antibiotic combination, 1% penicillin/streptomycin, on plates pre-coated with coating media containing 29 μg/ml collagen (Vitrogen: Collagen Corp., Palo Alto, Calif.), 10 μg/ml bovine serum albumin (Biofluids, Rockville, Md.), and 10 μg/ml fibronectin (Calbiochem, La Jolla, Calif.) for 5 min. HAEC obtained by bronchial brushing were cultured in serum-free Lechner and LaVeck media (LHC8) on plates pre-coated with coating media (Reddel R R, et al., Cancer Res 1988, 48:1904-1909). To evaluate oxidant stress and antioxidants in apoptotic events, BET-1A cells were stimulated at 70% confluence with SOD inhibitor, 2-Methoxyoestradiol (2-ME) (Sigma, St Louis, Mo.), or pyrogallol, a superoxide generating compound (J. T. Baker Inc, Phillipsburg, N.J.) (Comhair S A, et al., FASEB J 2001, 15:70-78), or hydrogen peroxide (Sigma, St. Louis, Mo.) in a dose and time dependent manner. […]
Caspase-3-like enzyme activity. Caspase-3-like activity was measured by a […] assay (BD PharMingen, San Diego, Calif.). […] AMC fluorescence is quantified by UV spectrofluorometry with an excitation wavelength of 380 nm and an emission wavelength range of 420-460 nm.

SOD protein = SOD protein in treated BET1A cells
Protocol: (§1) Cell Culture. BET1A, a human bronchial epithelial cell line, was cultured in serum-free Lechner and LaVeck medium (LHC-8, Biofluids, Inc., Rockville, Md.) with additives 0.33 nM retinoic acid, […] epinephrine and the antibiotic combination, 1% penicillin/streptomycin, on plates pre-coated with coating media containing 29 μg/ml collagen (Vitrogen: Collagen Corp., Palo Alto, Calif.), 10 μg/ml bovine serum albumin (Biofluids, Rockville, Md.), and 10 μg/ml fibronectin (Calbiochem, La Jolla, Calif.) for 5 min. HAEC obtained by bronchial brushing were cultured in serum-free Lechner and LaVeck media (LHC8) on plates pre-coated with coating media (Reddel R R, et al., Cancer Res 1988, 48:1904-1909). To evaluate oxidant stress and antioxidants in apoptotic events, BET-1A cells were stimulated at 70% confluence with SOD inhibitor, 2-Methoxyoestradiol (2-ME) (Sigma, St Louis, Mo.), or pyrogallol, a superoxide generating compound (J. T. Baker Inc, Phillipsburg, N.J.) (Comhair S A, et al., FASEB J 2001, 15:70-78), or hydrogen peroxide (Sigma, St. Louis, Mo.) in a dose and time dependent manner. 293T cells, a clone of 293 (human embryonic kidney fibroblast cells) that expresses the Simian virus 40 large-T antigen, were maintained in DMEM (Invitrogen) with 10% FCS.
(§2) Western Blot Assay. […] Total protein was measured by using the Coomassie protein assay (Pierce, Rockford, Ill.). […]

BET1A-cells = experiment: Tyrosine nitrated proteins in BET1A cells (anti-nitrotyrosine Western, 2D gel)
Protocol: Western Blot Assay. Airway epithelial cells freshly obtained by bronchoscopic brushing from asthmatics and healthy controls, or BET1A cells, were suspended in buffer (3 mM dithiothreitol, 5 μg/ml aprotinin, 1 μg/ml leupeptin and pepstatin A, 0.1 mM PMSF, 1% NP40 and 40 mM Hepes pH 7.5) and cell lysate prepared by three cycles of freeze/thaw. Total protein was measured by using the Coomassie protein assay (Pierce, Rockford, Ill.). Whole cell lysate protein was denatured and reduced by treatment with buffer containing 0.05 M Tris (pH 6.8), 1% sodium dodecyl sulfate (SDS), 10% glycerol, 0.00125% bromphenol blue and 0.5% β mercaptoethanol for 3 minutes at 95° C. Total protein was separated by electrophoresis on a 10% SDS-polyacrylamide gel, and then electrophoretically transferred onto nitrocellulose (NitroBind EP4HY315F5, Fisher Scientific, Pittsburgh, Pa.) or Polyvinylidene Difluoride membrane (Pierce, Rockford, Ill.) for 1 h at 4° C. Membranes were incubated with blocking buffer [5% non fat dry milk in TBS (20 mM Tris-HCl (pH 7.0) and 137 mM NaCl) with 0.1% Tween] for 1 h at room temperature to block nonspecific binding and then probed with a primary antibody in blocking buffer overnight at 4° C. […]
Two dimentional gel electrophoresis. […] Total Protein was measured by using Coomassie protein assay (Pierce, Rockfod, Ill.). […]

SOD = SOD activity (rate of cytochrome c reduction) in BET1A cells
Protocol: Cell Culture. BET1A, a human bronchial epithelial cell line, was cultured in serum-free Lechner and […] medium (LHC-8, Biofluids, Inc., Rockville, Md.) with additives 0.33 nM retinoic acid, […] epinephrine and the antibiotic combination, 1% penicillin/streptomycin, on plates pre-coated with coating media containing 29 μg/ml collagen (Vitrogen: Collagen Corp., Palo Alto, Calif.), 10 μg/ml bovine serum albumin (Biofluids, Rockville, Md.), and 10 μg/ml fibronectin (Calbiochem, La Jolla, Calif.) for 5 min. HAEC obtained by bronchial brushing were cultured in serum-free Lechner and […] media (LHC8) on plates pre-coated with coating media ([…], et al., Cancer Res 1988, 48:1904-1909). […] T. Baker Inc, […], et al., FASEB J 2001, 15:70-78), or hydrogen peroxide (Sigma, St. Louis, Mo.) in a dose and time dependent manner. 293T cells, a clone of 293 (human embryonic kidney fibroblast cells) that expresses the Simian virus 40 large-T antigen, were maintained in DMEM (Invitrogen) with 10% FCS. Antioxidant assays. Bronchial epithelial cells (BET1A) exposed to 5 µM 2-ME for 30 min to 24 h, or serum of asthmatic individuals, were assayed for glutathione (GSH), glutathione peroxidase (GPx), catalase, and SOD activity. SOD activity was determined by the rate of reduction of cytochrome c, with one unit (U) of SOD activity defined as the amount of SOD required to inhibit the rate of cytochrome c reduction by 50% (Nebot C, et al., Anal Biochem 1993, 214:442-451). The final reaction volume was 3 ml and included 50 mM potassium phosphate buffer, […] cytochrome c, 0.05 mM xanthine, and a 0.1 mM EDTA solution. Xanthine oxidase (Sigma, St Louis, Mo.) was added at a concentration sufficient to induce a 0.020 per minute change in absorbance at 550 nm. GSH levels were measured as previously described (Comhair S A, et al., Am J Respir Crit Care Med 1999, 159:1824-1829).

BET1A cells [2] = experiment: Cell viability by trypan blue exclusion
Protocol: BET1A, a human bronchial epithelial cell line, was cultured in serum-free Lechner and LaVeck medium (LHC-8, Biofluids, Inc., Rockville, Md.) with additives 0.33 nM retinoic acid, 2.75 mM epinephrine and the antibiotic combination, 1% penicillin/streptomycin, on plates pre-coated with coating media containing 29 μg/ml collagen (Vitrogen: Collagen Corp., Palo Alto, Calif.), 10 μg/ml bovine serum albumin (Biofluids, Rockville, Md.), and 10 μg/ml fibronectin (Calbiochem, La Jolla, Calif.) for 5 min.

BAX = BAX levels by Western blot; settings: BET1A cells
Protocol: as §1, §2

GSH = experiment: Intracellular GSH in BET1A cells
Protocol: Antioxidant assays. Bronchial epithelial cells (BET1A) exposed to 5 µM 2-ME for 30 min to 24 h, or serum of asthmatic individuals, were assayed for glutathione (GSH), glutathione peroxidase (GPx), catalase, and SOD activity. SOD activity was determined by the rate of reduction of cytochrome c, with one unit (U) of SOD activity defined as the amount of SOD required to inhibit the rate of cytochrome c reduction by 50% (Nebot C, et al., Anal Biochem 1993, 214:442-451). The final reaction volume was 3 ml and included 50 mM potassium phosphate buffer, […] cytochrome c, 0.05 mM xanthine, and a 0.1 mM EDTA solution. Xanthine oxidase (Sigma, St Louis, Mo.) was added at a concentration sufficient to induce a 0.020 per minute change in absorbance at 550 nm. GSH levels were measured as previously described (Comhair S A, et al., Am J Respir Crit Care Med 1999, 159:1824-1829).

MnSOD = MnSOD silencing by siRNA in 293T cells, caspase-3 activity; settings: 48 h after transfection
Protocol: Caspase-3-like enzyme activity. Caspase-3-like activity was measured by a […] assay (BD PharMingen, San Diego, Calif.). This assay measures active caspase-3 binding to fluorogenic Ac-DEVD-AMC substrate and its cleavage to release the fluorescent AMC. AMC fluorescence is quantified by UV spectrofluorometry with an excitation wavelength of 380 nm and an emission wavelength range of 420-460 nm.
Transfection of siRNA MnSOD. MnSOD siRNA was synthesized by Ambion (Austin, Tex.). The sense and antisense MnSOD siRNA were 5-GGAACAACAGGCCUUAUUCtt-3 (sense) and 5-GAAUAAGGCCUGUUGUUCCtt-3 (antisense). Silencer™ Negative control #1 siRNA (siRNA control) (Ambion, Austin Tex.) was used as a control. 293T-cells, at 60% confluence in […] plates, were transfected in serum-free medium (DMEM, Invitrogen, Carlsbad Calif.) by using lipofectamine reagent (Invitrogen, Carlsbad Calif.) according to the manufacturer's instructions. For the silencing experiments, cells were transfected with […] of MnSOD siRNA or with 50 nM of Silencer™ Negative Control #1 siRNA. 48 h after transfection, cells were washed, trypsinized and harvested for evaluation of mRNA, protein expression, and caspase-3 activity.

Compound: COc1cc2c(cc1O)CC[C@@H]1[C@@H]2CC[C@]2(C)[C@@H](O)CC[C@@H]12 [2-ME, 2-Methoxyoestradiol]
- apoptotic cells (Annexin V staining) (BET1A cells [1]): increase in apoptotic cells as early as 17 h
- caspase-3 activity (caspase-3): significantly increased
- SOD protein (SOD protein): did not cause a decrease of SOD protein
- tyrosine nitrated proteins (BET1A-cells): increase in tyrosine nitrated proteins
- blocked the activity of SOD (SOD; 5 μM, 3 h, p=0.004): up to 86%
- cell viability (trypan blue) (BET1A cells [2]): decrease in cell viability
- BAX levels (BAX): upregulation of BAX levels
- intracellular GSH (GSH): rapid depletion of intracellular GSH

Compound: OO [H202, hydrogen peroxide]
- apoptosis (BET1A cells [1]): increased apoptosis
- SOD activity (SOD): loss of SOD activity

Compound: Oc1cccc(O)c1O [pyrogallol]
- apoptosis (BET1A cells [1]): increased apoptosis
- SOD activity (SOD): loss of SOD activity

Compound: MnSOD siRNA: siRNA, sense 5-GGAACAACAGGCCUUAUUCtt-3, antisense 5-GAAUAAGGCCUGUUGUUCCtt-3, synthesized by Ambion (sense GGAACAACAGGCCUUAUUCTT; antisense GAAUAAGGCCUGUUGUUCCTT; 3' tt overhangs, chemistry not given here, further chemistry not given here)
- caspase-3 activation (MnSOD): caspase-3 activation
